pIC50: −log10 of the molar value. Like-named read-outs stand apart in the source and are kept apart here.
Experiments:
Type in all cases: biochemical
Lck = target: T1, Lck (Homo sapiens, UniProt P06239); assay: Kinase inhibition assay (33P transfer), Lck; conditions: read-out: Lck-1
T1 construct: Kinases are expressed as either kinase domains or full length constructs; made in house
Outline: (§1)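 Enzyme activity is taken as the amount of 33PO4 moved from ATP onto poly(Glu, Tyr) 4:1 or poly(Arg, Ser) 3:1 fixed to the plate surface. Unbound label is removed with 0.5% phosphoric acid before scintillation counting.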

Zap-70 = target: T2, Zap-70 (Homo sapiens, UniProt P43403); assay: Kinase inhibition assay (33P transfer), Zap-70; conditions: read-out: Zap-1
T2 construct: Kinases are expressed as either kinase domains or full length constructs; made in house
T2 sequence (P43403 1-619): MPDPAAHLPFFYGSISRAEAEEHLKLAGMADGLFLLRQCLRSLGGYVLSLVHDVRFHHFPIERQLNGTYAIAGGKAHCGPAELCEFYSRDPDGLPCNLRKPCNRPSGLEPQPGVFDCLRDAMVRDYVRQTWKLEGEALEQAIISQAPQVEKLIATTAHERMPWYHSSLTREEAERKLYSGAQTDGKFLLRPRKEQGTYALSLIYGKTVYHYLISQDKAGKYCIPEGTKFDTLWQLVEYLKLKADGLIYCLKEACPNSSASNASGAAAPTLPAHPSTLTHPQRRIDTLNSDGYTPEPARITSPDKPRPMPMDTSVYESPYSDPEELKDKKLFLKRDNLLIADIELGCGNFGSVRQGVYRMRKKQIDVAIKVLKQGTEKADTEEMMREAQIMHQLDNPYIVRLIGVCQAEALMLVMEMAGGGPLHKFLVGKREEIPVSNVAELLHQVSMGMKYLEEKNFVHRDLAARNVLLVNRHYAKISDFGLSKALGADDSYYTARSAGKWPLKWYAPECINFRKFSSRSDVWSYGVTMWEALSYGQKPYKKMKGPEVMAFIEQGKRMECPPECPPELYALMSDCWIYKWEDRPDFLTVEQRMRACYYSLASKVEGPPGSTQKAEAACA
Outline: as §1

Itk = target: T3, Itk (Homo sapiens, UniProt Q08881); assay: Kinase inhibition assay (33P transfer), Itk; conditions: read-out: Itk-1
T3 construct: Kinases are expressed as either kinase domains or full length constructs; made in house
T3 sequence (Q08881 1-620): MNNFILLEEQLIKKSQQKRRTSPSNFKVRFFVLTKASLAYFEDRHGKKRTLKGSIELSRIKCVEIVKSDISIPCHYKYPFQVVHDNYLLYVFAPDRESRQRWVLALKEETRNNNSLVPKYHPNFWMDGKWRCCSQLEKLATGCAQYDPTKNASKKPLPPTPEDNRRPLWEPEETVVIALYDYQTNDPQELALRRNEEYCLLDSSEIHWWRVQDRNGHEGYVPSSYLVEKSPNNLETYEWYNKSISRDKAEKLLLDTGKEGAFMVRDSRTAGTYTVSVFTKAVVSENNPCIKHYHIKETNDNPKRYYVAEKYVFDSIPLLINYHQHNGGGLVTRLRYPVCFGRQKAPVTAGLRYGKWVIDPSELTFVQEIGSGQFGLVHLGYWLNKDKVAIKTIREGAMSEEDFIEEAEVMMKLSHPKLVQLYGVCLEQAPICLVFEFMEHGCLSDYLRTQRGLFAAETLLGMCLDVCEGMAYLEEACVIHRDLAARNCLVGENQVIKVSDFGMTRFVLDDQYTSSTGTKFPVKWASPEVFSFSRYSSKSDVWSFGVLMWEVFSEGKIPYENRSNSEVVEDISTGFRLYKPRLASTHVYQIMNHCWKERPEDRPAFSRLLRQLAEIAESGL
Outline: (§2)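 Kinase domains or full-length enzymes, GST- or polyHis-tagged, were expressed in E. coli or baculovirus High Five cells and affinity-purified. Transfer of 33PO4 from ATP onto plate-bound poly(Glu,Tyr) 4:1 or poly(Arg,Ser) 3:1 was counted by liquid scintillation after a 0.5% phosphoric acid wash. IC50 = concentration halving incorporation.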

EGFR = target: T4, EGFR (Homo sapiens, UniProt P00533); assay: Kinase inhibition assay (33P transfer), EGFR; conditions: Table 2, kinase inhibition class; read-out: EGFR-1
T4 construct: Kinases are expressed as either kinase domains or full length constructs; made in house
Outline: as §2

Kdr = target: T5, Kdr (Homo sapiens, UniProt P35968); assay: Kinase inhibition assay (33P transfer), Kdr; conditions: read-out: KDR-1
T5 construct: Kinases are expressed as either kinase domains or full length constructs; made in house
Outline: as §1

c-Met = target: T6, c-Met (Homo sapiens, UniProt P08581); assay: Kinase inhibition assay (33P transfer), c-Met; conditions: Table 2, kinase inhibition class; read-out: Met-1
T6 construct: Kinases are expressed as either kinase domains or full length constructs; made in house
Outline: as §2

AKT = target: T7, AKT (Homo sapiens, UniProt Q9Y243); assay: Kinase inhibition assay (33P transfer), AKT; conditions: Table 2, kinase inhibition class; read-out: AKT3-1
T7 construct: Kinases are expressed as either kinase domains or full length constructs; made in house
Excerpt: The inhibitor compounds described herein are screened in the following manner. Kinases suitable for use in the following protocol to determine kinase activity of the compounds described herein include, -but are not limited to: Lck, Lyn, Src, Fyn, Syk, Zap-70, Itk, Tec, Btk, EGFR, ErbB2, Kdr, Flt-1, Flt-3, Tek, c-Met, InsR, and AKT.
Kinases are expressed as either kinase domains or full length constructs fused to glutathione S-transferase (GST) or polyHistidine tagged fusion proteins in either E. colior Baculovirus-High Five expression systems. […] In some instances, kinases are co-expressed or mixed with purified or partially purified regulatory polypeptides prior to measurement of activity.
Briefly, The transfer of ^33PO4 from ATP to the synthetic substrates poly(Glu, Tyr) 4:1 or poly(Arg, Ser) 3:1 attached to the bioactive surface of microtiter plates serves as the basis to evaluate enzyme activity. After an incubation period, the amount of phosphate transferred is measured by first washing the plate with 0.5% phosphoric acid, adding liquid scintillant, and then counting in a liquid scintillation detector.

T5 sequence (P35968 20-1356, species assumed): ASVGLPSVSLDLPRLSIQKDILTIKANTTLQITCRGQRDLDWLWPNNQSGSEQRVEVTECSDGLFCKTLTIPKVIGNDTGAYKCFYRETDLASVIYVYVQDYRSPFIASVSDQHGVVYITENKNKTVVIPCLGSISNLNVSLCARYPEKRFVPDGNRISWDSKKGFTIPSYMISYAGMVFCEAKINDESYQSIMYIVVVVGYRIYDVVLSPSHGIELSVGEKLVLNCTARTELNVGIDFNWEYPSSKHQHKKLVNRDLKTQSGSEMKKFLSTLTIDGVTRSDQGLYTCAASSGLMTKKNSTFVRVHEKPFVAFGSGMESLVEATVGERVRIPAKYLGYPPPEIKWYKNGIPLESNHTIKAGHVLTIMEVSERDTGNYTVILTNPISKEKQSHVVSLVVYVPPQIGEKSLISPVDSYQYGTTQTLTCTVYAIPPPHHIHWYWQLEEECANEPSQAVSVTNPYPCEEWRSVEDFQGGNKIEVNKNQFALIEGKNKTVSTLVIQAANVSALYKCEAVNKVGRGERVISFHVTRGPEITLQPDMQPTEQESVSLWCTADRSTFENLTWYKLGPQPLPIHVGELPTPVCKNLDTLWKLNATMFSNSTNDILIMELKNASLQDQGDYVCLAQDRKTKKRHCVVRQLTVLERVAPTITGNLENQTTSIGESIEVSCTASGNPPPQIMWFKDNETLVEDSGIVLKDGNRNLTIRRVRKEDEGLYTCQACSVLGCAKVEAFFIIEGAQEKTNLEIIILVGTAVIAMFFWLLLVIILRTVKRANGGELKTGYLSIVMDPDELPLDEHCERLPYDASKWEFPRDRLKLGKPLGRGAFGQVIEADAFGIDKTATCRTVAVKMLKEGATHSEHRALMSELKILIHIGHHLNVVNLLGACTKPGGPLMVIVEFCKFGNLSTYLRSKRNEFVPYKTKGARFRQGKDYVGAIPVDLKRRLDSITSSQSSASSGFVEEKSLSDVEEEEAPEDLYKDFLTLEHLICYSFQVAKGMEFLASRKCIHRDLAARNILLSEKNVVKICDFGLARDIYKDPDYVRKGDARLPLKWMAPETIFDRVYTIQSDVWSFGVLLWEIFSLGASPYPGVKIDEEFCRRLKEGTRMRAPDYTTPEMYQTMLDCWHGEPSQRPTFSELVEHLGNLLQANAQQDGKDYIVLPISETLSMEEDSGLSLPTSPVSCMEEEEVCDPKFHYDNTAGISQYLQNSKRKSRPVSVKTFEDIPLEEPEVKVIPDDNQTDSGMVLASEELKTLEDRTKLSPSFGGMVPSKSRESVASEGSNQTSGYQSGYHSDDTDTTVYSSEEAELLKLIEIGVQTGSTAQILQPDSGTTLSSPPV
T7 sequence (Q9Y243 whole entry, the tested form may be a part): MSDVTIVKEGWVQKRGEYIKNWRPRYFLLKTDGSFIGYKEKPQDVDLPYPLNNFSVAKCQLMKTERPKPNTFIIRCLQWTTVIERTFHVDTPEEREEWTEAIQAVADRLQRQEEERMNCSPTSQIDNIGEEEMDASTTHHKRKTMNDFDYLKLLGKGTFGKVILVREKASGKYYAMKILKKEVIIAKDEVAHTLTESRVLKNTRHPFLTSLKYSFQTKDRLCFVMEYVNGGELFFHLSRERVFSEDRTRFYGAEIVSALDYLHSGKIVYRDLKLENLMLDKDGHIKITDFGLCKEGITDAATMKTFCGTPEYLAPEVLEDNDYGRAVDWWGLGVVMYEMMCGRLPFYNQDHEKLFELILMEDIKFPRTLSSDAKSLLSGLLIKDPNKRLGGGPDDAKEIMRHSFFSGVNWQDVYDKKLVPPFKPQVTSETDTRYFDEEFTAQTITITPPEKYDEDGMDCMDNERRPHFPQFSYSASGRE
T1 sequence (P06239 whole entry, species assumed, the tested form may be a part): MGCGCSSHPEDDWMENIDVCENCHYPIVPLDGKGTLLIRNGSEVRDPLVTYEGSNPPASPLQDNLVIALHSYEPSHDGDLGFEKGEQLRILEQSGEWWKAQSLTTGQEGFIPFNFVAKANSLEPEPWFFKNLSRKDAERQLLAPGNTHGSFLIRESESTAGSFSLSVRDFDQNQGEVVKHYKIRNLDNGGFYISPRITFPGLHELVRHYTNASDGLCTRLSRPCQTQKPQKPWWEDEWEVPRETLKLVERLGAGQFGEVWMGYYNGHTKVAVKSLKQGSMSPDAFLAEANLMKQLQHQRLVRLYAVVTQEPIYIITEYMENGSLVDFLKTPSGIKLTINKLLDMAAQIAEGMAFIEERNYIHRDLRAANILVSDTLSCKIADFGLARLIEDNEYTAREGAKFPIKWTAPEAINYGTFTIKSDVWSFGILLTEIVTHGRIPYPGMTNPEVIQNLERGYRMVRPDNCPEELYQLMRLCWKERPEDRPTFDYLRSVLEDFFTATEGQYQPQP
T6 sequence (P08581 25-1390): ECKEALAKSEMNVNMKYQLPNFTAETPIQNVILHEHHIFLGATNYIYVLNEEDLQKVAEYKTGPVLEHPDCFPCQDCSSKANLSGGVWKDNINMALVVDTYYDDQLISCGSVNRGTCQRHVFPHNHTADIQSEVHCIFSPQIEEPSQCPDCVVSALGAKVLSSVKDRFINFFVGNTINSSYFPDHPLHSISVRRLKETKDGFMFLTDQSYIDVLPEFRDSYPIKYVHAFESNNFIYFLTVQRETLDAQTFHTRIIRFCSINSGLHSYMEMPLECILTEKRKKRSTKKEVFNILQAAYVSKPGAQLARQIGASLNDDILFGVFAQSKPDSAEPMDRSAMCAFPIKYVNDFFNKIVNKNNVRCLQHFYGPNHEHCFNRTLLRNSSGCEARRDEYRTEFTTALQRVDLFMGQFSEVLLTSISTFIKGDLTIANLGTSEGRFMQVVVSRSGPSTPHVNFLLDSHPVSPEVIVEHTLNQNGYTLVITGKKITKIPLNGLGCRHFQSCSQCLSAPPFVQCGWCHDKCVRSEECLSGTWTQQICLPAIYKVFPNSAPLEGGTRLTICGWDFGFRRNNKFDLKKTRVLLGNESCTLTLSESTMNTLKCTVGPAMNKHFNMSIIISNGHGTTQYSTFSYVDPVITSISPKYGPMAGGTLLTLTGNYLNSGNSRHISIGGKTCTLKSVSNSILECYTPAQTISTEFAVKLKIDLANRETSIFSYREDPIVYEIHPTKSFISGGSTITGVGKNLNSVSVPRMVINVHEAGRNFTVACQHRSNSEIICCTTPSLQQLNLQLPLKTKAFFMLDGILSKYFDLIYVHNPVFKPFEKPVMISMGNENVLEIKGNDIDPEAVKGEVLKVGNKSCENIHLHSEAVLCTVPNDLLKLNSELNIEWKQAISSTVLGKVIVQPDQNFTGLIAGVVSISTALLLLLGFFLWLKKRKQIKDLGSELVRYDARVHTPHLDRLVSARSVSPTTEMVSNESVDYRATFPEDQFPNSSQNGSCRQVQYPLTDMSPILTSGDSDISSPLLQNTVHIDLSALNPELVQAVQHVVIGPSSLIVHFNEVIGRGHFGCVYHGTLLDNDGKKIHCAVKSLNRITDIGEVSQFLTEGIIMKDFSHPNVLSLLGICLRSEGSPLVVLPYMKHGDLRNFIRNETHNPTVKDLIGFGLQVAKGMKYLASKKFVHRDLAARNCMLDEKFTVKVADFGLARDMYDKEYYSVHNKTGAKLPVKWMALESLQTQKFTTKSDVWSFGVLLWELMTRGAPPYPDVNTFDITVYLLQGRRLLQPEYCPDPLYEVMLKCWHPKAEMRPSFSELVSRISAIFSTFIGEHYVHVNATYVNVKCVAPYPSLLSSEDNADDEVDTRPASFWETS
T4 sequence (P00533 25-1210, species assumed): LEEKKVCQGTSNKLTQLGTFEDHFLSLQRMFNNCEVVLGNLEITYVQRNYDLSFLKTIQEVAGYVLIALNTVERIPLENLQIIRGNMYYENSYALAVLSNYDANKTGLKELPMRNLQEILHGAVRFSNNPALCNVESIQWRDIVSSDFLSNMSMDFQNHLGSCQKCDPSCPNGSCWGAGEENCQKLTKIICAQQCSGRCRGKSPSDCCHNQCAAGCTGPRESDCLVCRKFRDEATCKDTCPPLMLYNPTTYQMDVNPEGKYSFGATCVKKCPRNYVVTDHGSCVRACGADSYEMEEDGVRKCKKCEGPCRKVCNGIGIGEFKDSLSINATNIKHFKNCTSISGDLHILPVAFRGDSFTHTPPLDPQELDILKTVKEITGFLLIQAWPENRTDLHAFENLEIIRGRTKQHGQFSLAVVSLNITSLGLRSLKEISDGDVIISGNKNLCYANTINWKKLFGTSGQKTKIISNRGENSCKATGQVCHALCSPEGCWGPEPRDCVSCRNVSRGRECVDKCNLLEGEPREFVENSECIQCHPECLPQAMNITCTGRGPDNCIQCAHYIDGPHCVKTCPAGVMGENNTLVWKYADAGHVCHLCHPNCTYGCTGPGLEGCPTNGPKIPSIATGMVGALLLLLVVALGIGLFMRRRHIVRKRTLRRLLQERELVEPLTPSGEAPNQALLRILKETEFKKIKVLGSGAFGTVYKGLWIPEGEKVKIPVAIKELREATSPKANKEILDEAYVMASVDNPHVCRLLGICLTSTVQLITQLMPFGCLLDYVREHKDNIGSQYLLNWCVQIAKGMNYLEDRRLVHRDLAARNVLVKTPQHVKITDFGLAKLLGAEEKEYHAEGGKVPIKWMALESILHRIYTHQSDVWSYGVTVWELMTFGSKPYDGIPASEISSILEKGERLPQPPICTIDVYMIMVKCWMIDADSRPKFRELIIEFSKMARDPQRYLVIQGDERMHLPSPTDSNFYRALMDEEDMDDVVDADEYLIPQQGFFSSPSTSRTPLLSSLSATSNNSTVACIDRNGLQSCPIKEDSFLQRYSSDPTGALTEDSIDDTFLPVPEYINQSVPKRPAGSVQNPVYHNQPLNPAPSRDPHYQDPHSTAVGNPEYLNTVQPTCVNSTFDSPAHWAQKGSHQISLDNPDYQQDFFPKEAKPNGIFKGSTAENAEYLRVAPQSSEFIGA

pIC50 (Lck; Table 3) | pIC50 (Zap-70; Table 3) | pIC50 (Itk; Table 3) | pIC50 (EGFR) | pIC50 (Kdr; Table 3) | pIC50 (c-Met) | pIC50 (AKT) | pIC50 (Lck) | pIC50 (Zap-70) | pIC50 (Itk) | pIC50 (Kdr) | Structure (SMILES)
< 4.94 | < 4.94 | < 4.94 | < 4.94 | < 4.94 | < 4.94 | < 4.94 | – | – | – | – | O=c1[nH]c2ccccc2n1-c1ncnc(Nc2cccc(OC(F)(F)F)c2)n1 [Compound 461]
< 4.92 | < 4.92 | < 4.92 | 5.19 to 5.97 | 5.19 to 5.97 | < 4.92 | < 4.92 | – | – | – | – | COc1cc(Nc2ncnc(Nc3nc(C)cs3)n2)cc(OC)c1OC [Compound 468]
– | – | – | 5.15 to 5.93 | – | 4.99 to 5.15 | < 4.88 | < 4.88 | < 4.88 | < 4.88 | < 4.88 | O=c1[nH]c2ccccc2n1-c1ncnc(Nc2ccccc2Cl)n1 [Compound 484]
< 4.98 | < 4.98 | < 4.98 | < 4.98 | 5.25 to 6.03 | < 4.98 | < 4.98 | – | – | – | – | CC(=O)NS(=O)(=O)c1ccc(Nc2ncnc(-n3c(=O)[nH]c4ccccc43)n2)cc1 [Compound 452]
5.29 to 6.07 | < 5.02 | < 5.02 | < 5.02 | 5.13 to 5.29 | < 5.02 | < 5.02 | – | – | – | – | CCN(CC)CCCNc1ccc(-c2ncnc(Nc3cc(OC)c(OC)c(OC)c3)n2)cn1 [Compound 448]
5.26 to 6.03 | < 4.98 | < 4.98 | < 4.98 | 5.26 to 6.03 | 5.09 to 5.26 | < 4.98 | – | – | – | – | O=C(Nc1ccc(Nc2ncnc(-n3c(=O)[nH]c4ccccc43)n2)cc1)O[C@@H]1CCOC1 [Compound 454]
– | – | – | < 4.75 | – | < 4.75 | < 4.75 | < 4.75 | < 4.75 | < 4.75 | < 4.75 | CC(C)(C)c1cc(Nc2ncnc(Cl)n2)[nH]n1 [Compound 975]
– | – | – | < 4.96 | – | < 4.96 | < 4.96 | < 4.96 | < 4.96 | < 4.96 | 5.23 to 6.01 | COc1cc(Nc2ncnc(Nc3nc4ccccc4s3)n2)cc(OC)c1OC [Compound 469]
– | – | – | < 5.04 | – | < 5.04 | < 5.04 | 5.31 to 6.09 | < 5.04 | < 5.04 | > 6.09 | COc1cc(Nc2ncnc(-n3c(=O)[nH]c4ccccc43)n2)cc(OCCN2CCOCC2)c1OC [Compound 1039]
< 4.95 | < 4.95 | < 4.95 | < 4.95 | < 4.95 | < 4.95 | < 4.95 | – | – | – | – | NS(=O)(=O)c1ccc(CNc2ncnc(-n3c(=O)[nH]c4ccccc43)n2)cc1 [Compound 456]
– | – | – | < 5.00 | – | < 5.00 | < 5.00 | < 5.00 | < 5.00 | < 5.00 | 5.28 to 6.05 | COC(=O)n1c(=O)n(-c2ncnc(Nc3cc(OC)c(OC)c(OC)c3)n2)c2ccccc21 [Compound 1032]
– | – | – | < 4.90 | – | < 4.90 | < 4.90 | < 4.90 | < 4.90 | < 4.90 | < 4.90 | O=c1[nH]c2ccccc2n1-c1ncnc(Nc2cccc3ccccc23)n1 [Compound 683]
– | – | – | < 5.00 | – | < 5.00 | < 5.00 | < 5.00 | < 5.00 | < 5.00 | < 5.00 | COc1cc(Nc2ncnc(Nc3[nH]ncc3-c3cccc(Cl)c3)n2)cc(OC)c1OC [Compound 999]
– | – | – | < 4.88 | – | < 4.88 | < 4.88 | < 4.88 | < 4.88 | < 4.88 | < 4.88 | O=c1[nH]c2ccccc2n1-c1ncnc(Nc2ccc3[nH]ncc3c2)n1 [Compound 685]
– | – | – | 4.90 to 5.01 | – | < 4.90 | < 4.90 | 5.17 to 5.95 | < 4.90 | 4.90 to 5.01 | 5.17 to 5.95 | O=c1[nH]c2ccccc2n1-c1ncnc(Nc2ccc3ncccc3c2)n1 [Compound 687]
< 5.04 | < 5.04 | < 5.04 | < 5.04 | < 5.04 | < 5.04 | < 5.04 | – | – | – | – | COc1cc(Nc2ncnc(-n3c(=O)sc4cc(Br)ccc43)n2)cc(OC)c1OC [Compound 426]
< 4.88 | < 4.88 | < 4.88 | < 4.88 | 5.15 to 5.93 | 4.99 to 5.15 | < 4.88 | – | – | – | – | O=c1[nH]c2ccccc2n1-c1ncnc(Nc2ccc(Cl)cc2)n1 [Compound 458]
< 5.04 | < 5.04 | < 5.04 | < 5.04 | < 5.04 | < 5.04 | < 5.04 | – | – | – | – | COc1cc(Nc2ncnc(-n3c(NC(=O)c4ccccc4)nc4ccccc43)n2)cc(OC)c1OC [Compound 435]
– | – | – | < 4.83 | – | < 4.83 | < 4.83 | < 4.83 | < 4.83 | < 4.83 | < 4.83 | O=c1[nH]c2ccccc2n1-c1ncnc(Nc2ccccn2)n1 [Compound 487]
– | – | – | 5.17 to 5.94 | – | 5.17 to 5.94 | < 4.89 | 5.17 to 5.94 | < 4.89 | 5.17 to 5.94 | 5.17 to 5.94 | CC(C)(C)c1cc(Nc2ncnc(Nc3cccc(C(N)=O)c3)n2)[nH]n1 [Compound 500]
< 4.96 | < 4.96 | < 4.96 | < 4.96 | 5.07 to 5.23 | < 4.96 | < 4.96 | – | – | – | – | COc1cc(Nc2ncnc(-n3c(=O)sc4ccccc43)n2)cc(OC)c1OC [Compound 424]
– | – | – | < 4.90 | – | < 4.90 | < 4.90 | < 4.90 | < 4.90 | < 4.90 | 5.01 to 5.17 | O=c1[nH]c2ccccc2n1-c1ncnc(Nc2ccc3ccccc3c2)n1 [Compound 684]
– | – | – | 5.03 to 5.14 | – | < 5.03 | < 5.03 | 5.14 to 5.30 | < 5.03 | 5.30 to 6.08 | < 5.03 | COc1ccc(-c2cn[nH]c2Nc2ncnc(Nc3cc(OC)c(OC)c(OC)c3)n2)cc1OC [Compound 470]
